Experimental data reported in DBAASP.
≈ marks a conversion by molar mass, not a printed value. One block for each compound: values may come before it.

Tests used:
Test in all cases: ≥ marks a high value that may be exact or a test limit, other limits are often not marked, values filed in µg/mL are converted to µM
[1] = tested on: Pseudomonas aeruginosa A62
Escherichia coli 44102 = tested on: Escherichia coli 44102
Bacillus subtilis A47 = tested on: Bacillus subtilis A47
[2] = tested on: Staphylococcus aureus 22401
[3] = tested on: Escherichia coli K12 MG1655
[4] = tested on: Staphylococcus aureus 68 HER 1049
[5] = tested on: Porphyromonas gingivalis ATCC 53978
[6] = tested on: Porphyromonas gingivalis ATCC 33277
[7] = tested on: Pseudomonas aeruginosa CGMCC 1.50
[8] = tested on: Nocardia asteroides 201118
Candida glabrata 090902 = tested on: Candida glabrata 090902
[9] = tested on: Enterococcus faecium 091299
[10] = tested on: Enterococcus faecalis 981
[11] = tested on: Enterobacter cloacae CGMCC 1.57
[12] = tested on: Klebsiella pneumoniae 08040724
[13] = tested on: Escherichia coli ATCC 25922
[14] = tested on: Psychrobacter faecalis X29

MIC [1]: 12.5 µM (≈ 20.2 µg/mL)
MIC (Escherichia coli 44102): ≥ 50 µM
MIC (Bacillus subtilis A47): 25 µM (≈ 40.3 µg/mL)
MIC [2]: 6.25 µM (≈ 10.1 µg/mL)
SMILES: CC[C@H](C)[C@H](N)C(=O)N[C@@H](CC(C)C)C(=O)N1CCC[C@H]1C(=O)N[C@H](C(=O)N[C@H](C(=O)NCC(=O)N[C@@H](CCCCN)C(=O)N[C@H](C(=O)N[C@@H](CC(C)C)C(=O)N[C@@H](CO)C(=O)N[C@H](C(=O)N[C@H](C(=O)N[C@@H](Cc1ccccc1)C(=O)NCC(=O)N[C@@H](CCCCN)C(=O)O)[C@@H](C)CC)[C@@H](C)O)[C@@H](C)CC)[C@@H](C)CC)[C@@H](C)CC [ILPIIGKILSTIFGK]

MIC [3]: 1.85 µM (≈ 4 µg/mL)
MIC [4]: 1.85 µM (≈ 4 µg/mL)
SMILES: CC[C@H](C)[C@H](NC(=O)[C@H](CCCN=C(N)N)NC(=O)[C@H](CCCN=C(N)N)NC(=O)[C@H](CC(C)C)NC(=O)[C@H](CCCCN)NC(=O)[C@H](CCCCN)NC(=O)[C@H](Cc1c[nH]c2ccccc12)NC(=O)[C@H](CCCN=C(N)N)NC(=O)[C@H](CCCCN)NC(=O)[C@H](Cc1c[nH]c2ccccc12)NC(=O)[C@@H](N)Cc1c[nH]c2ccccc12)C(=O)N[C@@H](Cc1ccccc1)C(=O)N[C@@H](CC(C)C)C(=O)N[C@@H](CCSC)C(=O)N[C@@H](CC(C)C)C(=O)O [WWKRWKKLRRIFLML]

MIC [5]: 1.7 µM (≈ 4.78 µg/mL)
MIC [6]: 1.7 µM (≈ 4.78 µg/mL)
SMILES: CC[C@H](C)[C@H](NC(=O)CNC(=O)[C@H](CCC(=O)O)NC(=O)CNC(=O)[C@H](C)NC(=O)CNC(=O)[C@H](Cc1cnc[nH]1)NC(=O)[C@@H]1CCCN1C(=O)[C@@H](N)CCCN=C(N)N)C(=O)N[C@@H](CC(=O)O)C(=O)N[C@@H](CCCN=C(N)N)C(=O)N[C@H](C(=O)N1CCC[C@H]1C(=O)N[C@@H](C)C(=O)NCC(=O)N1CCC[C@H]1C(=O)N[C@@H](CO)C(=O)N1CCC[C@H]1C(=O)N[C@@H](CO)C(=O)N[C@@H](CCC(=O)O)C(=O)N[C@H](C(=O)NCC(=O)N[C@@H](CC(C)C)C(=O)N[C@@H](C)C(=O)N[C@H](C(=O)N1CCC[C@H]1C(=O)N[C@@H](CO)C(=O)NCC(=O)N[C@@H](CCCCN)C(=O)O)[C@@H](C)CC)C(C)C)C(C)C [RPHGAGEGIDRVPAGPSPSEVGLAIPSGK]

MIC [7]: ≥ 50 µM
MIC [8]: 6.3 µM (≈ 18.5 µg/mL)
MIC (Candida glabrata 090902): ≥ 50 µM
MIC [9]: 6.3 µM (≈ 18.5 µg/mL)
MIC [10]: ≥ 50 µM
MIC [11]: ≥ 50 µM
MIC [12]: ≥ 100 µM
MIC [13]: 50 µM (≈ 147 µg/mL)
MIC [14]: 3.1 µM (≈ 9.13 µg/mL)
SMILES: CC[C@H](C)[C@H](NC(=O)CN)C(=O)N[C@@H](CC(C)C)C(=O)N[C@@H](CC(=O)O)C(=O)N[C@H](C(=O)N[C@@H](CC(C)C)C(=O)N[C@@H](CCCCN)C(=O)N[C@@H](CCC(N)=O)C(=O)N[C@@H](CC(C)C)C(=O)NCC(=O)N[C@@H](CCCCN)C(=O)N[C@@H](C)C(=O)N[C@@H](C)C(=O)N[C@@H](C)C(=O)N[C@@H](CCC(N)=O)C(=O)N[C@@H](CO)C(=O)N[C@@H](CC(C)C)C(=O)N[C@@H](CC(C)C)C(=O)N[C@@H](CO)C(=O)N[C@@H](CCCCN)C(=O)N[C@@H](C)C(=O)N[C@@H](C)C(=O)N[C@H]1CSSC[C@@H](C(=O)O)NC(=O)[C@H]([C@@H](C)O)NC(=O)[C@H](CCCCN)NC(=O)[C@H](C)NC(=O)[C@H](CC(C)C)NC(=O)[C@H](CCCCN)NC1=O)[C@@H](C)O [GILDTLKQLGKAAAQSLLSKAACKLAKTC]
